Consider 19 compounds from patent publication US10428024B2, “Piperidinyl derivatives” (MERCK PATENT GMBH, priority 2016, dated 2019).

One assay deals with PDHK2 (Homo sapiens (Human), UniProt Q15119). The assay is described as follows: Biochemical activity testing of PDHK2: PDC inactivation assay. The note with it: human rec PDHK2, 5 μM ATP, read-out: IC50 PDHK2 (enzyme assay). From the text: Biochemical Activity Testing of PDHK2: PDC Inactivation Assay
The biochemical activity assay for PDHK2 is based on the inactivation of PDC through phosphorylation by PDHK2. The assay is run in two steps: the enzymatic PDHK2 reaction in which isolated PDC is phosphorylated by PDHK2 with ATP as co-substrate and the PDC activity assay in which pyruvate and NAD are converted to acetyl-CoA and NADH. The PDC activity correlates to the increase in NADH and thereby is detectable directly via the increasing fluorescence signal (Exc 340 nm, Em 450 nm). Inhibition of PDHK2 results in a lower phosphorylation status and thereby a less decrease in activity of PDC and a stronger increase in NADH fluorescence signal.
The PDC inactivation assay is performed in Greiner 384-well microtiter plates and is used for high throughput screen. 4 μl of PDHK2 (human, rec, Carna Bioscience, 10 ng/μl-137 nM final concentration) and PDC (isolated from porcine heart, Sigma-Aldrich, 20 mU/ml final concentration) are incubated in the absence or presence of the test compound (10 dilution concentrations) for 30 min at room temperature in kinase buffer (15 mM potassium phosphate buffer, pH 7.0, 60 mM KCl, 1.5 mM DTT, 2.5 mM MgCl2, 0.0125% (w/v) BSA, 0.125% Pluronic F-68). The kinase reaction is started by the addition of 4 μl ATP substrate solution (fc 5 μM in kinase buffer). After 30 min incubation at 37° C. 40 μl of PDC reaction solution (100 mM Tris/HCl, pH 7.8, 0.5 mM EDTA, 1 mM MgCl2, 50 mM NaF, 0.25 mM Coenzyme A, 5 mM pyruvate, 1 mM NAD, 5 mM DTT, 1 mM thiamine pyrophosphate) is added. The first fluorescence measurement is performed on a Perkin Elmer Envision (Exc 340 nm, Em 450 nm). The reaction is incubated for 45 min at room temperature. Afterwards a second fluorescence measurement is performed and the PDC activity is calculated by the difference between both measurements. As full value for the PDHK2 assay the inhibitor-free PDHK2 reaction is used. The pharmacological zero value used is DCA (Sigma-Aldrich) in a final concentration of 3 mM. The inhibitory values (IC50) were determined using either the program Symyx Assay Explorer® or Condosseo® from GeneData.
What is called IC50 is the concentration needed to halve the response being measured. On to `CN(C(=O)C1CCN(C(=O)[C@@](C)(O)C(F)(F)F)CC1)c1ccc(C#N)cc1` [Compound A4, 1-((R)-3,3,3-Trifluoro-2-hydroxy-2-methyl-propionyl)-piperidine-4-carboxylic acid (4-cyano-phenyl)-methyl-amide], for which the half-inhibitory concentration (IC50) is 1.5 µM.
The same measure, in the same setting: for `Cc1ccc(N(C)C(=O)[C@@H]2CCN(C(=O)[C@@](C)(O)C(F)(F)F)C[C@@H]2C)cc1` [Compound A8, (3R,4R)—N,3-Dimethyl-N-(4-methylphenyl)-1-[(2R)-3,3,3-trifluoro-2-hydroxy-2-methylpropanoyl]piperidine-4-carboxamide] the value was 5.1 µM.
As to `C[C@H]1CN(C(=O)[C@@](C)(O)C(F)(F)F)CC[C@H]1C(=O)N(C)c1ccc(Cl)cc1` [Compound A11, (3R,4R)—N-(4-chlorophenyl)-N,3-dimethyl-1-[(2R)-3,3,3-trifluoro-2-hydroxy-2-methylpropanoyl]piperidine-4-carboxamide], the concentration for half-maximal inhibition (IC50) is 3.8 µM.
`Cc1ccc(N(C)C(=O)[C@@H]2CCN(C(=O)[C@@](C)(O)C(F)(F)F)C[C@@H]2C)c(F)c1` [Compound A14, (3R,4R)—N-(2-fluoro-4-methylphenyl)-N,3-dimethyl-1-[(2R)-3,3,3-trifluoro-2-hydroxy-2-methylpropanoyl]piperidine-4-carboxamide]: the 50% inhibitory concentration (IC50) was 0.77 µM.
Still for that read-out and setting: then `CC1CN(C(=O)[C@@](C)(O)C(F)(F)F)CCC1C(=O)N(C)c1ccc(C(F)(F)F)cc1Cl` (stereo partly drawn) [Compound A15, N-[2-chloro-4-(trifluoromethyl)phenyl]-N,3-dimethyl-1-[(2R)-3,3,3-trifluoro-2-hydroxy-2-methylpropanoyl]piperidine-4-carboxamide], with 1.7 µM; and `C[C@H]1CN(C(=O)[C@@](C)(O)C(F)(F)F)CC[C@H]1N(C)C(=O)c1ccc(Cl)cc1` [Compound A22, 4-Chloro-N-methyl-N-[(3S,4R)-3-methyl-1-[(2R)-3,3,3-trifluoro-2-hydroxy-2-methylpropanoyl]piperidin-4-yl]benzamide], with 5.9 µM.
In the case of `Cc1ccc(C(=O)N(C)[C@@H]2CCN(C(=O)[C@@](C)(O)C(F)(F)F)C[C@@H]2C)cc1` [Compound A25, N,4-Dimethyl-N-[(3S,4R)-3-methyl-1-[(2R)-3,3,3-trifluoro-2-hydroxy-2-methylpropanoyl]piperidin-4-yl]benzamide], the IC50 stood at 2.7 µM.
Take `C[C@H]1CN(C(=O)[C@@](C)(O)C(F)(F)F)CC[C@H]1N(C)C(=O)c1ccc(F)cc1` [Compound A30, 4-Fluoro-N-methyl-N-[(3S,4R)-3-methyl-1-[(2R)-3,3,3-trifluoro-2-hydroxy-2-methylpropanoyl]piperidin-4-yl]benzamide]: the half-maximal inhibitory concentration (IC50) was 7.9 µM.
On to `C[C@H]1CN(C(=O)[C@@](C)(O)C(F)(F)F)CC[C@H]1N(C)C(=O)c1ccccc1` [Compound A33, N-Methyl-N-[(3S,4R)-3-methyl-1-[(2R)-3,3,3-trifluoro-2-hydroxy-2-methylpropanoyl]piperidin-4-yl]benzamide], for which the IC50 is 3.4 µM.
Regarding `COc1ccc(C(=O)N(C)[C@@H]2CCN(C(=O)[C@@](C)(O)C(F)(F)F)C[C@@H]2C)cc1` [Compound A36, 4-Methoxy-N-methyl-N-[(3S,4R)-3-methyl-1-[(2R)-3,3,3-trifluoro-2-hydroxy-2-methylpropanoyl]piperidin-4-yl]benzamide], the IC50 was 1.3 µM.
For `C[C@H]1CN(C(=O)[C@@](C)(O)C(F)(F)F)CC[C@H]1N(C)C(=O)c1ccc(F)cc1F` [Compound A39, 2,4-Difluoro-N-methyl-N-[(3S,4R)-3-methyl-1-[(2R)-3,3,3-trifluoro-2-hydroxy-2-methylpropanoyl]piperidin-4-yl]benzamide], the IC50 stood at 4.9 µM.
In the case of `C[C@H]1CN(C(=O)[C@@](C)(O)C(F)(F)F)CC[C@H]1N(C)C(=O)c1ncc(F)cc1F` [Compound A42, 3,5-Difluoro-N-methyl-N-[(3S,4R)-3-methyl-1-[(2R)-3,3,3-trifluoro-2-hydroxy-2-methylpropanoyl]piperidin-4-yl]pyridine-2-carboxamide], the IC50 was determined as 2.4 µM.
Regarding `C[C@H]1CN(C(=O)[C@@](C)(O)C(F)(F)F)CC[C@H]1N(C)C(=O)c1ccc(C#N)cc1` [Compound A45, 4-Cyano-N-methyl-N-[(3S,4R)-3-methyl-1-[(2R)-3,3,3-trifluoro-2-hydroxy-2-methylpropanoyl]piperidin-4-yl]benzamide], the IC50 was found to be 27 µM.
`C[C@H]1CN(C(=O)[C@@](C)(O)C(F)(F)F)CC[C@H]1N(C)C(=O)c1ccc(C(F)(F)F)cc1F` [Compound A48, 2-Fluoro-N-methyl-N-[(3S,4R)-3-methyl-1-[(2R)-3,3,3-trifluoro-2-hydroxy-2-methylpropanoyl]piperidin-4-yl]-4-(trifluoromethyl)benzamide]: the 50% inhibitory concentration (IC50) amounted to 2.4 µM.
In the case of `C[C@H]1CN(C(=O)[C@@](C)(O)C(F)(F)F)CC[C@H]1N(C)C(=O)c1ccc(F)cc1Cl` [Compound A51, 2-Chloro-4-fluoro-N-methyl-N-[(3S,4R)-3-methyl-1-[(2R)-3,3,3-trifluoro-2-hydroxy-2-methylpropanoyl]piperidin-4-yl]benzamide], the IC50 was 3.6 µM.
Take `C[C@H]1CN(C(=O)[C@@](C)(O)C(F)(F)F)CC[C@H]1N(C)C(=O)c1ccc(F)cn1` [Compound A54, 5-Fluoro-N-methyl-N-[(3S,4R)-3-methyl-1-[(2R)-3,3,3-trifluoro-2-hydroxy-2-methylpropanoyl]piperidin-4-yl]pyridine-2-carboxamide]: the concentration for half-maximal inhibition (IC50) amounted to 13 µM.
As to `C[C@H]1CN(C(=O)[C@@](C)(O)C(F)(F)F)CC[C@H]1N(C)C(=O)c1cnn(C)c1` [Compound A57, N,1-Dimethyl-N-[(3S,4R)-3-methyl-1-[(2R)-3,3,3-trifluoro-2-hydroxy-2-methylpropanoyl]piperidin-4-yl]-1H-pyrazole-4-carboxamide], the concentration for half-maximal inhibition (IC50) was found to be 19 µM.
Take `C[C@H]1CN(C(=O)[C@@](C)(O)C(F)(F)F)CC[C@H]1N(C)C(=O)c1ccc(Cl)cc1F` [Compound A60, 4-Chloro-2-fluoro-N-methyl-N-[(3S,4R)-3-methyl-1-[(2R)-3,3,3-trifluoro-2-hydroxy-2-methylpropanoyl]piperidin-4-yl]benzamide]: the IC50 was 3.9 µM.
Turning to `C[C@H]1CN(C(=O)[C@@](C)(O)C(F)(F)F)CC[C@H]1N(C)C(=O)c1ccc(C(F)(F)F)cc1` [Compound A63, N-Methyl-N-[(3S,4R)-3-methyl-1-[(2R)-3,3,3-trifluoro-2-hydroxy-2-methylpropanoyl]piperidin-4-yl]-4-(trifluoromethyl)benzamide], the IC50 is 2.9 µM.

For a further assay, the target named is human PDHK2 (12-407) (Homo sapiens (Human), UniProt Q15119). The assay is described as follows: Isothermal titration calorimetry (ITC). The note with it: 30° C., pH 7.5; read-out: Binding (ITC) KD. The method, then:
Isothermal Titration Calorimetry
ITC measurements were performed with a VP-ITC micro calorimeter (Microcal, LLC/GE Healthcare Bio-Sciences AB, Uppsala, Sweden). In general titrations were performed by titrating the protein (50 μM) to the test compound (5 μM) in 12 μl injections. All binding experiments were carried out at 30° C. In general the test compounds were diluted form DMSO stock solutions into the measurement buffer with a maximum final concentration of 1% DMSO. The measurement buffer was 20 mM HEPES, 135 mM KCl, 1 mM TCEP, 2 mM MgCl2, 15 mM NaH2PO4, pH 7.5. The human PDHK2 (12-407) was produced in E. coli as his-tagged protein and purified by affinity chromatography. The tag was removed by side specific proteolysis. Before titration the protein buffer was changed to the measurement buffer containing the same DMSO concentration as the test compound dilution. ITC data analysis was performed using Origin 7 calorimetry software from the same supplier. For most measurements a binding model of one binding site was assumed. According to the applied mathematical model it is possible to calculate the binding constant (KA), the observed binding enthalpy (ΔH^obs) as well as the stoichiometry (N) of the formed complex. Preceding analysis the raw data was corrected for the heats of dilution by extrapolating from the saturation value from the end of titration. In order to allow for direct comparison between the respective experimental series and protein preparations the protein concentration was corrected by referencing titrations to a well behaved standard inhibitor. The apparent stoichiometry values defined the fraction of binding competent protein and compensated for relative errors in protein concentration measurements. This corrected protein concentration was used to set up ITC experiment series with test compounds. Any deviations from ideal 1:1 stoichiometry observed here were attributed to errors in compound concentration. This nominal compound concentration was corrected as well to achieve 1:1 stoichiometry in the fit.
By Kd is commonly meant the equilibrium constant for the complex coming apart. For `CN(C(=O)C1CCN(C(=O)[C@@](C)(O)C(F)(F)F)CC1)c1ccc(C#N)cc1` [Compound A4, 1-((R)-3,3,3-Trifluoro-2-hydroxy-2-methyl-propionyl)-piperidine-4-carboxylic acid (4-cyano-phenyl)-methyl-amide], the Kd was 0.21 µM.
`Cc1ccc(N(C)C(=O)[C@@H]2CCN(C(=O)[C@@](C)(O)C(F)(F)F)C[C@@H]2C)c(F)c1` [Compound A14, (3R,4R)—N-(2-fluoro-4-methylphenyl)-N,3-dimethyl-1-[(2R)-3,3,3-trifluoro-2-hydroxy-2-methylpropanoyl]piperidine-4-carboxamide]: the dissociation constant (Kd) came out at 5 µM.
